Experimental data reported in the NIST ThermoML archive (doi:10.1016/j.jct.2017.08.035).

Experiment: wn = mass fraction of the nth substance listed
Details: for surface tension liquid-gas: Maximal bubble pressure; for mass density: 100 kPa, Liquid, Vibrating tube method

CCn1cc[n+](CCOC)c1.N#C[S-] [1-ethyl-3-(2-methoxyethyl)imidazolium thiocyanate] + O
Details	mass density, w2 = 0.00246 [kg/m3]	mass density, w2 = 0.00426 [kg/m3]	mass density, w2 = 0.00608 [kg/m3]	mass density, w2 = 0.00832 [kg/m3]	mass density, w2 = 0.00975 [kg/m3]	surface tension liquid-gas, w2 = 0.00382 [mN/m]	surface tension liquid-gas, w2 = 0.00528 [mN/m]	surface tension liquid-gas, w2 = 0.00668 [mN/m]	surface tension liquid-gas, w2 = 0.00811 [mN/m]	surface tension liquid-gas, w2 = 0.00956 [mN/m]
298.15 K	1121.78	1121.54	1121.29	1120.96	1120.82	49.3	49.4	49.5	49.6	49.7
303.15 K	1118.56	1118.32	1118.08	1117.75	1117.6	49	49.1	49.2	49.3	49.4
308.15 K	1115.36	1115.12	1114.88	1114.54	1114.4	48.7	48.8	48.9	49	49.1
313.15 K	1112.18	1111.94	1111.7	1111.35	1111.21	48.4	48.5	48.6	48.8	48.9
318.15 K	1109.03	1108.77	1108.54	1108.18	1108.03	48.1	48.2	48.3	48.5	48.6
323.15 K	1105.88	1105.63	1105.39	1105.02	1104.87	47.8	47.9	48	48.1	48.2
328.15 K	1102.76	1102.5	1102.25	1101.87	1101.72	47.6	47.7	47.8	47.9	48
333.15 K	1099.65	1099.38	1099.13	1098.74	1098.59	47.4	47.5	47.6	47.7	47.8
338.15 K	1096.55	1096.28	1096.02	1095.62	1095.47	47.1	47.2	47.3	47.5	47.6
